In data set [1] the test system is DU145. Kind of data set: CellTiter-Glo (CTG) viability assay, DU145. The data set is classed as cell-based. Conditions: Homo sapiens, DU-145, 72 h.
The test system of a further data set is PC3. Kind of data set: CellTiter-Glo (CTG) viability assay, PC3. The data set is classed as cell-based. The conditions noted are these: Homo sapiens, PC-3, 72 h.
In the next data set the test system is LNCaP. Kind of data set: CellTiter-Glo (CTG) viability assay, LNCaP. It is filed as cell-based. The conditions noted are these: Homo sapiens, 72 h. (In ATP-based viability assays light output follows the ATP content of the culture.)
Data set [2] concerns DU145. Kind of data set: Protein expression of TRAIL pathway proteins, DU145. The data set is classed as cell-based. Conditions: DU145 treated with ONC201 at IC50; 12, 24 and 48 hours. The source says: FIGS. 2A-2C provide images showing NED marker expression in PC and SCLC.
The next data set has as its system 22RV1. Kind of data set: Protein expression of TRAIL pathway proteins, 22RV1. The data set is classed as cell-based. The conditions noted are these: 22RV1 treated with ONC201 at IC50; 12, 24 and 48 hours.
In data set [3] the test system is tumor cell lines (n=6) from prostate and small cell lung cancer tissues. Kind of data set: CellTiter-Glo (CTG) viability assay, panel of tumor cell lines. The conditions noted are these: 6 PC and SCLC cell lines; varying drug concentrations, 72 hours.

Regarding `Cc1ccccc1CN1C(=O)C2=C(CCN(Cc3ccccc3)C2)N2CCN=C12` [ONC201], the results for the IC50 in the data set with DU145 [1], in the data set on PC3 and in the data set with LNCaP were 3.11 µM, 3.02 µM and 1.33 µM, respectively. Moreover, the ATF4 protein expression entry in the data set on DU145 [2] and in the data set with 22RV1 was “upregulation of ATF4 ISR pathway” each time. For the same molecule, the CLpX protein expression entry with DU145 [2] and in the data set with 22RV1 was “decreased CLpX expression” each time. For the same molecule, in data set [3], the “Sensitivity and cytotoxicity (viability)” value is “shows sensitivity and cytotoxicity to tumor cell lines”.

The record behind these values is patent US20240050431A1, “NEUROENDOCRINE DIFFERENTIATION IN IMIPRIDONE CANCER TREATMENT” (BROWN UNIVERSITY, priority 2022, published 2024).
